In patent US10370405B2, “C-3 novel triterpenone with C-28 amide derivatives as HIV inhibitors” (HETERO LABS LIMITED, priority 2016, dated 2019):
Like-named read-outs stand apart in the source and are kept apart here.

What was measured:
[1] = system: HIV-1 strain 92HT599; experiment: Antiviral activity: p24 estimation in MT2 cells infected with HIV-1; type: cell-based; conditions: for IC50: Human immunodeficiency virus 1, MT2; for inhibition at 0.01 µM / inhibition at 0.1 µM / inhibition at 1 µM: Human immunodeficiency virus 1, MT2 cells, HIV-1 92HT599, p24, ~96 hours
Description: MT2 cells were infected with HIV-1 strain 92HT599 (10 TCID 50/30000 cells). The infected cells were plated at the concentration of ˜30 000 cells per well in 96 well plate. Test compound was added to the micro plate in defined format with the final concentration of DMSO (vehicle) is not more than 1%. Incubation was carried out in CO2 incubator for ˜96 hours for viral infection. At the end of incubation period an aliquot from each well was taken for p24 estimation. The quantitation of p24 is an index for antiviral activity of the compound. Percent inhibition was calculated with reference to control values (vehicle controls). P-24 estimation was carried out using Advance biosciences kit as per the procedure detailed by supplier.

[2] = Single dose oral pharmacokinetic study; type: in vivo; conditions: mouse, plasma; Mice oral PK @30 mg/kg
Description: The test item was administered through oral route to animals (rat/mice) at 30 mg/kg dose in a suitable vehicle (10% Solutol+20% PEG) at 10 ml/kg dose volume. Blood samples (˜50 μL at each time point) were collected from retro-orbital plexus using K3 EDTA as anticoagulant in eppendorf tubes at defined time intervals 30 minutes, 1 hour, 2 hour, 4 hour, 8 hour, 24 hour & 48 hour under light ether anaesthesia. The samples were centrifuged at 3500×g to separate plasma and stored at −80° C. until analysis. Plasma […] for Mice were processed as per described in sample preparation.
Standard solutions of the test compound 1 mg/mL solutions were prepared in DMSO and further dilutions were made in methanol. The calibration curve samples for LCMSMS analysis were prepared by spiking 25 μl of Mice plasma with 2.5 μl and of the appropriate working standard solution to obtain final concentrations 0.078, 0.156, 0.312, 0.625, 1.25, 2.5, 5, 10, 20 & 40 µg/ml. To the test compound plasma extraction was carried out using Acetonitrile precipitation. After reconstitution with solvent (50% Acetonitrile in Buffer) samples were analyzed by LCMSMS to get the concentrations to calculate PK Parameters.

[3] = in vitro
Description: On day 1 calculate the number of cells required for the assay and seed 3×10^4 cells in 200 μl per well. Weigh the compound and dissolve it in DMSO to get 10 mM stock which is further diluted to 3 mM and 1 mM. The drugs from these stocks were added to plate to get final concentration of 100 μM, 30 μM and 10 μM. […] Incubate for 4 days in 5% CO2 incubator at 37° C. On day 4, 100 μl of medium was removed from each well without disturbing the cells. Add 10 μl of MTT reagent and incubate for 4 hours at 5% CO2 incubator at 37° C. for formation of crystals. Add 200 μl of 0.1N acidic isopropanol to dissolve the crystals and read the plate at 590 nm.

[4] = 0% serum, read-out: Antiviral activity IC50 (nM) 0%
[5] = read-out: Antiviral activity IC50 (nM) 40% serum

CC(C)C1=C2[C@H]3CC[C@@H]4[C@@]5(C)CC[C@H](OC(=O)[C@H]6C[C@@H](C(=O)O)C6(C)C)C(C)(C)[C@@H]5CC[C@@]4(C)[C@]3(C)CC[C@@]2(C(=O)N2CCCC2c2ncc(-c3ccccc3)[nH]2)CC1=O (stereo partly drawn) [Example 1, (1R,3S)-3-((((3aR,5aR,5bR,7aR,9S,11aR,11bR,13aS)-1-isopropyl-5a,5b,8,8,11a-pentamethyl-2-oxo-3a-((S)-2-(5-phenyl-1H-imidazol-2-yl)pyrrolidine-1-carbonyl)-3,3a,4,5,5a,5b,6,7,7a,8,9,10,11,11a,11b,12,13,13a-octadecahydro-2H-cyclopenta[a]chrysen-9-yl)oxy)carbonyl)-2,2-dimethlcyclobutane-1-carboxylic acid]
IC50 [1, 4]: 5.21 nM
IC50 [1, 5]: 3.92 nM
inhibition at 0.01 µM [1]: 100%
inhibition at 0.1 µM [1]: 98%
inhibition at 1 µM [1]: 99%
AUC(0-t) [2]: 69800 ng·h/mL
Cmax [2]: 8650 ng/mL
viability at 4 days, 10 μM [3]: 80%
viability at 4 days, 30 μM [3]: 67%
viability at 4 days, 100 μM [3]: 62%

CC(C)C1=C2[C@H]3CC[C@@H]4[C@@]5(C)CC[C@H](OC(=O)[C@H]6C[C@@H](C(=O)O)C6(C)C)C(C)(C)[C@@H]5CC[C@@]4(C)[C@]3(C)CC[C@@]2(C(=O)N2CCC[C@H]2c2ncc(-c3ccc(F)cc3)[nH]2)CC1=O [Example 2, (1R,3S)-3-((((3aR,5aR,5bR,7aR,9S,11aR,11bR,13aS)-3a-((S)-2-(5-(4-fluorophenyl)-1H-imidazol-2-yl)pyrrolidine-1-carbonyl)-1-isopropyl-5a,5b,8,8,11a-pentamethyl-2-oxo-3,3a,4,5,5a,5b,6,7,7a,8,9,10,11,11a,11b,12,13,13a-octadecahydro-2H-cyclopenta[a]chrysen-9-yl)oxy)carbonyl)-2,2-dimethlcyclobutane-1-carboxylic acid]
IC50 [1, 4]: 3.89 nM
IC50 [1, 5]: 51.2 nM
inhibition at 0.01 µM [1]: 60%
inhibition at 0.1 µM [1]: 100%
inhibition at 1 µM [1]: 100%
AUC(0-t) [2]: 148000 ng·h/mL
Cmax [2]: 11900 ng/mL
viability at 4 days, 10 μM [3]: 100%
viability at 4 days, 30 μM [3]: 100%
viability at 4 days, 100 μM [3]: 90%

CC(C)C1=C2[C@H]3CC[C@@H]4[C@@]5(C)CC[C@H](OC(=O)[C@H]6C[C@@H](C(=O)O)C6(C)C)C(C)(C)[C@@H]5CC[C@@]4(C)[C@]3(C)CC[C@@]2(C(=O)N2CCC[C@H]2c2ncc(-c3cccnc3)[nH]2)CC1=O [Example 3, (1R,3S)-3-((((3aR,5aR,5bR,7aR,9S,11aR,11bR,13aS)-1-isopropyl-5a,5b,8,8,11a-pentamethyl-2-oxo-3a-((S)-2-(5-(pyridin-3-yl)-1H-imidazol-2-yl)pyrrolidine-1-carbonyl)-3,3a,4,5,5a,5b,6,7,7a,8,9,10,11,11a,11b,12,13,13a-octadecahydro-2H-cyclopenta[a]chrysen-9-yl)oxy)carbonyl)-2,2-dimethlcyclobutane-1-carboxylic acid]
IC50 [1, 4]: 1.82 nM
IC50 [1, 5]: 0.81 nM
inhibition at 0.01 µM [1]: 100%
inhibition at 0.1 µM [1]: 100%
inhibition at 1 µM [1]: 100%
AUC(0-t) [2]: 48600 ng·h/mL
Cmax [2]: 8530 ng/mL
viability at 4 days, 10 μM [3]: 98%
viability at 4 days, 30 μM [3]: 67%
viability at 4 days, 100 μM [3]: 45%

CC(C)C1=C2[C@H]3CC[C@@H]4[C@@]5(C)CC[C@H](OC(=O)[C@H]6C[C@@H](C(=O)O)C6(C)C)C(C)(C)[C@@H]5CC[C@@]4(C)[C@]3(C)CC[C@@]2(C(=O)N2CC[C@@H](N3CCCC3)C2)CC1=O [Example 4, (1R,3S)-3-((((3aR,5aR,5bR,7aR,9S,11aR,11bR,13aS)-3a-((R)-[1,3′-bipyrrolidine]-1′-carbonyl)-1-isopropyl-5a,5b,8,8,11a-pentamethyl-2-oxo-3,3a,4,5,5a,5b,6,7,7a,8,9,10,11,11a,11b,12,13,13a-octadecahydro-2H-cyclopenta[a]chrysen-9-yl)oxy)carbonyl)-2,2-dimethylcyclobutane-1-carboxylic acid]
IC50 [1, 4]: 0.68 nM
IC50 [1, 5]: 54.5 nM
inhibition at 0.01 µM [1]: 100%
inhibition at 0.1 µM [1]: 100%
inhibition at 1 µM [1]: 100%
viability at 4 days, 10 μM [3]: 62%
viability at 4 days, 30 μM [3]: 6%
viability at 4 days, 100 μM [3]: 2%

CC(C)C1=C2[C@H]3CC[C@@H]4[C@@]5(C)CC[C@H](OC(=O)[C@H]6C[C@@H](C(=O)O)C6(C)C)C(C)(C)[C@@H]5CC[C@@]4(C)[C@]3(C)CC[C@@]2(C(=O)N2CCC[C@H]2CN2CCC[C@H]2CO)CC1=O [Example 5, (1R,3S)-3-((((3aR,5aR,5bR,7aR,9S,11aR,11bR,13aS)-3a-((S)-2-(((S)-2-(hydroxymethyl)pyrrolidin-1-yl)methyl)pyrrolidine-1-carbonyl)-1-isopropyl-5a,5b,8,8,11a-pentamethyl-2-oxo-3,3a,4,5,5a,5b,6,7,7a,8,9,10,11,11a,11b,12,13,13a-octadecahydro-2H-cyclopenta[a]chrysen-9-yl)oxy)carbonyl)-2,2-dimethlcyclobutane-1-carboxylic acid]
IC50 [1, 4]: 0.93 nM
IC50 [1, 5]: 25.5 nM
inhibition at 0.01 µM [1]: 100%
inhibition at 0.1 µM [1]: 100%
inhibition at 1 µM [1]: 100%
viability at 4 days, 10 μM [3]: 70%
viability at 4 days, 30 μM [3]: 70%
viability at 4 days, 100 μM [3]: 73%

CC(C)C1=C2[C@H]3CC[C@@H]4[C@@]5(C)CC[C@H](OC(=O)[C@H]6C[C@@H](C(=O)O)C6(C)C)C(C)(C)[C@@H]5CC[C@@]4(C)[C@]3(C)CC[C@@]2(C(=O)N2CCC[C@H]2CN2CCC(F)(F)C2)CC1=O [Example 6, (1R,3S)-3-((((3aR,5aR,5bR,7aR,9S,11aR,11bR,13aS)-3a-((S)-2-((3,3-difluoropyrrolidin-1-yl)methyl)pyrrolidine-1-carbonyl)-1-isopropyl-5a,5b,8,8,11a-pentamethyl-2-oxo-3,3a,4,5,5a,5b,6,7,7a,8,9,10,11,11a,11b,12,13,13a-octadecahydro-2H-cyclopenta[a]chrysen-9-yl)oxy)carbonyl)-2,2-dimethylcyclobutane-1-carboxylic acid]
IC50 [1, 4]: 0.72 nM
IC50 [1, 5]: 203 nM
inhibition at 0.01 µM [1]: 100%
inhibition at 0.1 µM [1]: 100%
inhibition at 1 µM [1]: 100%
AUC(0-t) [2]: 76600 ng·h/mL
Cmax [2]: 11500 ng/mL
viability at 4 days, 10 μM [3]: 57%
viability at 4 days, 30 μM [3]: 10%
viability at 4 days, 100 μM [3]: 6%

CC(C)C1=C2[C@H]3CC[C@@H]4[C@@]5(C)CC[C@H](OC(=O)[C@H]6C[C@@H](C(=O)O)C6(C)C)C(C)(C)[C@@H]5CC[C@@]4(C)[C@]3(C)CC[C@@]2(C(=O)N2CCC[C@H]2CN2CCC(F)(F)CC2)CC1=O [Example 7, (1R,3S)-3-((((3aR,5aR,5bR,7aR,9S,11aR,11bR,13aS)-3a-((S)-2-((4,4-difluoropiperidin-1-yl)methyl)pyrrolidine-1-carbonyl)-1-isopropyl-5a,5b,8,8,11a-pentamethyl-2-oxo-3,3a,4,5,5a,5b,6,7,7a,89,10,11,11a,11b,12,13,13a-octadecahydro-2H-cyclopenta[a]chrysen-9-yl)oxy)carbonyl)-2,2-dimethylcyclobutane-1-carboxylic acid]
IC50 [1, 4]: 24.7 nM
IC50 [1, 5]: 313 nM
inhibition at 0.01 µM [1]: 100%
inhibition at 0.1 µM [1]: 100%
inhibition at 1 µM [1]: 100%
AUC(0-t) [2]: 28800 ng·h/mL
Cmax [2]: 7410 ng/mL
viability at 4 days, 10 μM [3]: 65%
viability at 4 days, 30 μM [3]: 9%
viability at 4 days, 100 μM [3]: 8%

CC(C)C1=C2[C@H]3CC[C@@H]4[C@@]5(C)CC[C@H](OC(=O)[C@H]6C[C@@H](C(=O)O)C6(C)C)C(C)(C)[C@@H]5CC[C@@]4(C)[C@]3(C)CC[C@@]2(C(=O)N2CCC[C@H]2CN2CCC(F)CC2)CC1=O [Example 10, (1R,3S)-3-((((3aR,5aR,5bR,7aR,9S,11aR,11bR,13aS)-3a-((S)-2-((4-fluoropiperidin-1-yl)methyl)pyrrolidine-1-carbonyl)-1-isopropyl-5a,5b,8,8,11a-pentamethyl-2-oxo-3,3a,4,5,5a,5b,6,7,7a,8,9,10,11,11a,11b,12,13,13a-octadecahydro-2H-cyclopenta[a]chrysen-9-yl)oxy)carbonyl)-2,2-dimethylcyclobutane-1-carboxylic acid]
IC50 [1, 4]: 1.06 nM
IC50 [1, 5]: 0.93 nM
inhibition at 0.01 µM [1]: 97%
inhibition at 0.1 µM [1]: 100%
inhibition at 1 µM [1]: 100%
viability at 4 days, 10 μM [3]: 31%
viability at 4 days, 30 μM [3]: 4%
viability at 4 days, 100 μM [3]: 4%
